Measured values taken from PMC12190436, “5-Ene-2-arylaminothiazol-4(5H)-ones Induce Apoptosis in Breast Cancer Cells” (Cells, 2025).
Structures can show the parent of a compound that is named as a salt.

Experiments:
SF-295 = format: cell-based; conditions: for Growth %: SF-295, 10 μM, one dose, 48 h
MDA-MB-435 = format: cell-based; conditions: for Growth %: MDA-MB-435, 10 μM, one dose, 48 h
Bax = assay: Bax, anti-Bax FITC antibody flow cytometry; format: cell-based, human; conditions: 5 µM, 24 h, MCF-7
Method: To evaluate the effects of the tested compounds on the concentration of Bax protein, anti-Bax FITC-conjugated antibody was applied. MCF-7 cells were seeded on 6-well plates at 5 × 10^6 cells per well, followed by incubation for 24 h. Afterwards, the cells were treated for 24 h with new 4-thiazolidinone derivatives (Les-6416, Les-6418, Les-6381, Les-6423, and Les-6424) at a concentration of 5 µM. Then, cells were collected and incubated with 4% formaldehyde for 15 min at RT. Next, cells were washed with an excess amount of PBS, followed by permeabilization by adding ice-cold 90% methanol and incubation for 60 min in an ice bath. Cells were again washed with an excess of PBS and resuspended in 100 µL of diluted primary antibody, prepared in antibody dilution buffer at a 1:100 dilution, and incubated for 60 min at room temperature in the dark. Cells were washed, resuspended in 0.3 mL, and transferred to the tubes for immediate assessment using a BD FACSCanto II flow cytometer (Becton Dickinson Biosciences, San Jose, CA, USA). For each sample, 1 × 10^4 events were analyzed. The results were analyzed using FACSDiva software Version 6.1.3 (BD Biosciences Systems, San Jose, CA, USA).
Another important protein for the intrinsic pathway of apoptosis is a pro-apoptotic member of the Bcl-2 family-Bax. […]

MCF-7 cells = assay: ROS generation, H2DCFDA/DAPI double staining; format: cell-based, human
Method: MCF-7 cells were seeded in 6-well plates at 1 × 10^5 cells per well in 2 mL medium. Afterwards, cells were treated with the mentioned compounds for 1 and 3 h, respectively. Next, cells were washed, and 20 µM of H2DCFDA was added for 30 min. After that, 10 µg/mL of DAPI was added to observe the nuclear DNA of cells. The results were obtained with the use of a Nikon ECLIPSE Ti fluorescence microscope (Nikon, Tokyo, Japan), followed by further assessment via ImageJ software version 1.54k (Bethesda, MD, USA).
H2DCFDA (green fluorescence) was utilized to mark oxidative stress, and DAPI (blue fluorescence) to stain nuclear genetic material.

MOLT-4 = format: cell-based
COLO 205 = format: cell-based
HCT-15 = format: cell-based
KM12 = format: cell-based
Colon Cancer = format: cell-based
SNB-75 = format: cell-based
CNS Cancer = format: cell-based
UACC-257 = format: cell-based
IGROV1 = format: cell-based
OVCAR-5 = format: cell-based
OVCAR-8 = format: cell-based
NCI/ADR-RES = format: cell-based
786-0 = format: cell-based
A498 = format: cell-based
Prostate Cancer = format: cell-based

## COc1cc(NC2=NC(=O)C(=Cc3ccc4cc[nH]c4c3)S2)cc(OC)c1OC [Les-6416, 5-((1H-Indol-6-yl)methylene)-2-((3,4,5-trimethoxyphenyl)amino)thiazol-4(5H)-one]
SF-295
  Growth %: 5.01%
MDA-MB-435
  Growth %: −33.26%
Bax
  Bax positive cells, cell population: 12.27 ± 0.45%
MCF-7 cells; 2.5 µM, 3 h
  ROS generation versus control: approximately two times more than the untreated control
MCF-7 cells; 5 µM, 1 h
  ROS generation versus control: two times more than the control
MCF-7 cells; 5 µM, 3 h
  ROS generation versus control: approximately a threefold increase

## COc1cccc2c1C(=O)c1c(O)c3c(c(O)c1C2=O)C[C@@](O)(C(=O)CO)C[C@@H]3O[C@H]1C[C@H](N)[C@H](O)[C@H](C)O1 [DOX, Doxorubicin hydrochloride, reference compound]
MCF-7 cells; 0.5 µM, 3 h
  ROS generation versus control: approximately two times more than the untreated control

## COc1cc(NC2=NC(=O)C(=Cc3c[nH]c4ccccc34)S2)cc(OC)c1OC [Les-6418, 5-((1H-Indol-3-yl)methylene)-2-((3,4,5-trimethoxyphenyl)amino)thiazol-4(5H)-one]
MOLT-4; Homo sapiens, MOLT-4, 48 h
  GI50: 2.63 µM
MOLT-4; Homo sapiens, MOLT-4, 48 h, read-out: LC50 (the source's name)
  CC50: > 100 µM
MOLT-4; MOLT-4, 48 h
  TGI: 26.0 µM
MOLT-4; MOLT-4, MG_MID_60/value
  SI (GI50): 1.24
  SI (TGI): 0.72
COLO 205; COLO 205, 48 h
  TGI: 16.4 µM
COLO 205; COLO 205, MG_MID_60/value
  SI (TGI): 1.13
COLO 205; Homo sapiens, COLO 205, 48 h
  GI50: 3.14 µM
COLO 205; Homo sapiens, COLO 205, 48 h, read-out: LC50 (the source's name)
  CC50: 49.6 µM
HCT-15; HCT-15, 48 h
  TGI: 12.4 µM
HCT-15; HCT-15, MG_MID_60/value
  SI (TGI): 1.50
HCT-15; Homo sapiens, HCT-15, 48 h
  GI50: 1.79 µM
HCT-15; Homo sapiens, HCT-15, 48 h, read-out: LC50 (the source's name)
  CC50: 37.7 µM
KM12; Homo sapiens, KM12, 48 h
  GI50: 0.977 µM
KM12; Homo sapiens, KM12, 48 h, read-out: LC50 (the source's name)
  CC50: 70.7 µM
KM12; KM12, 48 h
  TGI: 16.8 µM
KM12; KM12, MG_MID_60/value
  SI (TGI): 1.11
Colon Cancer; Colon Cancer subpanel mean
  MG_MID TGI: 15.5 µM
Colon Cancer; Colon Cancer subpanel, MG_MID_60/value
  SI (MG_MID TGI): 1.20
Colon Cancer; Homo sapiens, Colon Cancer subpanel mean, read-out: MG_MID GI50
  GI50: 2.48 µM
Colon Cancer; Homo sapiens, Colon Cancer subpanel mean, read-out: MG_MID LC50
  CC50: 55.6 µM
SF-295; Homo sapiens, SF-295, 48 h
  GI50: 2.27 µM
SF-295; Homo sapiens, SF-295, 48 h, read-out: LC50 (the source's name)
  CC50: 40.9 µM
SF-295
  Growth %: −73.38%
SF-295; SF-295, 48 h
  TGI: 13.4 µM
SF-295; SF-295, MG_MID_60/value
  SI (TGI): 1.39
SNB-75; Homo sapiens, SNB-75, 48 h
  GI50: 1.24 µM
SNB-75; Homo sapiens, SNB-75, 48 h, read-out: LC50 (the source's name)
  CC50: 11.9 µM
SNB-75; SNB-75, 48 h
  TGI: 3.63 µM
SNB-75; SNB-75, MG_MID_60/value
  SI (TGI): 5.12
CNS Cancer; CNS Cancer subpanel mean
  MG_MID TGI: 14.0 µM
CNS Cancer; CNS Cancer subpanel, MG_MID_60/value
  SI (MG_MID TGI): 1.33
CNS Cancer; Homo sapiens, CNS Cancer subpanel mean, read-out: MG_MID GI50
  GI50: 3.24 µM
CNS Cancer; Homo sapiens, CNS Cancer subpanel mean, read-out: MG_MID LC50
  CC50: 46.1 µM
MDA-MB-435; Homo sapiens, MDA-MB-435, 48 h
  GI50: 0.28 µM
  LC50: 14.2 µM
MDA-MB-435
  Growth %: −77.11%
MDA-MB-435; MDA-MB-435, 48 h
  TGI: 0.940 µM
MDA-MB-435; MDA-MB-435, MG_MID_60/value
  SI (TGI): 19.8
UACC-257; Homo sapiens, UACC-257, 48 h
  GI50: 5.18 µM
UACC-257; Homo sapiens, UACC-257, 48 h, read-out: LC50 (the source's name)
  CC50: 52.7 µM
UACC-257; UACC-257, 48 h
  TGI: 21.1 µM
UACC-257; UACC-257, MG_MID_60/value
  SI (TGI): 0.88
IGROV1; Homo sapiens, IGROV-1, IGROV1, 48 h
  GI50: 4.91 µM
IGROV1; Homo sapiens, IGROV-1, IGROV1, 48 h, read-out: LC50 (the source's name)
  CC50: 57.2 µM
IGROV1; IGROV1, 48 h
  TGI: 21.6 µM
IGROV1; IGROV1, MG_MID_60/value
  SI (TGI): 0.86
OVCAR-5; Homo sapiens, OVCAR-5, 48 h
  GI50: 4.58 µM
  LC50 (concentration killing 50% of cells): 44.1 µM
OVCAR-5; OVCAR-5, 48 h
  TGI: 17.7 µM
OVCAR-5; OVCAR-5, MG_MID_60/value
  SI (TGI): 1.05
OVCAR-8; Homo sapiens, OVCAR-8, 48 h
  GI50: 10.6 µM
  LC50 (50% lethal concentration): 70.1 µM
OVCAR-8; OVCAR-8, 48 h
  TGI: 27.2 µM
OVCAR-8; OVCAR-8, MG_MID_60/value
  SI (TGI): 0.68
NCI/ADR-RES; 48 h
  TGI: 24.2 µM
NCI/ADR-RES; Homo sapiens, 48 h
  GI50: 6.24 µM
NCI/ADR-RES; Homo sapiens, 48 h, read-out: LC50 (the source's name)
  CC50: 74.2 µM
NCI/ADR-RES; MG_MID_60/value
  SI (TGI): 0.77
786-0; 786-0, 10 μM, one dose, 48 h
  Growth %: −73.06%
786-0; 786-0, 48 h
  TGI: 11.9 µM
786-0; 786-0, MG_MID_60/value
  SI (TGI): 1.56
786-0; Homo sapiens, 786-0, 48 h
  GI50: 2.72 µM
786-0; Homo sapiens, 786-0, 48 h, read-out: LC50 (the source's name)
  CC50: 55.7 µM
A498; A498, 10 μM, one dose, 48 h
  Growth %: −76.12%
A498; A498, 48 h
  TGI: 24.6 µM
A498; A498, MG_MID_60/value
  SI (TGI): 0.76
A498; Homo sapiens, A498, 48 h
  GI50: 10.2 µM
A498; Homo sapiens, A498, 48 h, read-out: LC50 (the source's name)
  CC50: 59.6 µM
Prostate Cancer; Homo sapiens, Prostate Cancer subpanel mean, read-out: MG_MID GI50
  GI50: 3.61 µM
Prostate Cancer; Homo sapiens, Prostate Cancer subpanel mean, read-out: MG_MID LC50
  CC50: 70.8 µM
Prostate Cancer; Prostate Cancer subpanel mean
  MG_MID TGI: 19.9 µM
Prostate Cancer; Prostate Cancer subpanel, MG_MID_60/value
  SI (MG_MID TGI): 0.93
Bax
  Bax positive cells, cell population: 8.27 ± 0.58%
